Measured values reported in patent US7973069B2 (PTC Therapeutics, Inc., priority 2004, dated 2011).
Where “and” joins values, the source holds several entries; their conditions need not be identical. Identical values can stand only once.

Tested on: HCV replicon
Type: cell-based

Row | SMILES | IC50
1 | CCn1c(-c2ccc(NC(=O)OCC(C)C)cc2)c(C#N)c2ccc(OC(F)F)cc21 [Compound 1134] | 0.5 to 2 µM
2 | CCn1c(-c2ccc(NC(=O)N3CCCC3)cc2)c(C#N)c2ccc(OC)cc21 [Compound 1089] | 0.5 to 2 µM
3 | COc1ccc2c(C#N)c(-c3ccc(NS(=O)(=O)C4CC4)cc3)n(CC3CC3)c2c1 [Compound 982] | > 2 µM
4 | CCOc1ccc2c(C#N)c(-c3ccc(NC(=O)NC4CCCC4)cc3)n(C3CCC3)c2c1 [Compound 1027] | < 0.5 µM
5 | CCCCn1c(-c2ccc(NC(=O)NCC)cc2)c(C#N)c2ccc(OCC)cc21 [Compound 1016] | 0.5 to 2 µM
6 | CCCOc1ccc2c(C#N)c(-c3ccc(NC(=O)OC(C)C4CC4)cc3)n(C(C)C)c2c1 (centres unmarked) [Compound 1242] | < 0.5 µM
7 | CCn1c(-c2ccc(NC(=O)N3CCOCC3)cc2)c(C#N)c2ccc(OC)cc21 [Compound 1087] | 0.5 to 2 µM
8 | CCn1c(-c2ccc(NC(=O)OCC(C)C)cc2)c(C#N)c2ccc(OCCF)cc21 [Compound 947] | < 0.5 µM
9 | CCOc1ccc2c(C#N)c(-c3ccc(NC(=O)NC4CCC4)cc3)n(C3CCC3)c2c1 [Compound 1168] | < 0.5 µM
10 | CCOc1ccc2c(c1)c(C#N)c(-c1ccc(NC(=O)OC3CCC3)cc1)n2C1CCC1 [Compound 1292] | < 0.5 µM
11 | CCOc1ccc2c(C#N)c(-c3ccc(N4CCCS4(=O)=O)cc3)n(C3CCC3)c2c1 [Compound 980] | > 2 µM
12 | N#Cc1cn(CC2CC2)c2cc(OC(F)F)ccc12 [Compound 940] | 0.5 to 2 µM
13 | CCCCNC(=O)Nc1ccc(-c2c(C#N)c3cc(OC)ccc3n2C2CCC2)cc1 [Compound 1164] | < 0.5 µM and > 2 µM
14 | CCOc1ccc2c(c1)c(C#N)c(-c1ccc(NC(=O)OCC3(C)CC3)cc1)n2C1CCC1 [Compound 1294] | < 0.5 µM
15 | CCn1c(-c2ccc(NC(=O)OC(C)C)cc2)c(C#N)c2ccc(OCCF)cc21 [Compound 946] | < 0.5 µM
16 | CCOc1ccc2c(C#N)c(-c3ccc(NC(=O)CCc4ccccc4)cc3)n(CC)c2c1 [Compound 901] | 0.5 to 2 µM
17 | CC(C)n1c(-c2ccc(NS(=O)(=O)C3CC3)cc2)c(C#N)c2ccc(OC(F)F)cc21 [Compound 868] | < 0.5 µM
18 | CCOc1ccc2c(C#N)c(-c3ccc(NP(=O)(OC)OC)cc3)n(C3CCC3)c2c1 [Compound 937] | < 0.5 µM
19 | CCOc1ccc2c(C#N)c(-c3ccc(NC(=O)NC(C)C)cc3)n(CC3CCC3)c2c1 [Compound 1171] | < 0.5 µM
20 | CCCOC(=O)Nc1ccc(-c2c(C#N)c3ccc(OC)cc3n2COC)cc1 [Compound 993] | 0.5 to 2 µM
21 | CCCn1c(-c2ccc(NS(=O)(=O)C3CC3)cc2)c(C#N)c2ccc(OCc3ccccc3)cc21 [Compound 924] | 0.5 to 2 µM
22 | CCn1c(-c2cccc(N3CCOC3=O)c2)c(C#N)c2ccc(OCCCN3CCOCC3)cc21 [Compound 1069] | 0.5 to 2 µM
23 | CCC(C)OC(=O)Nc1ccc(-c2c(C#N)c3ccc(OC(F)F)cc3n2CC2CC2)cc1 (centres unmarked) [Compound 1268] | 0.5 to 2 µM
24 | CC(C)NC(=O)Nc1ccc(-c2c(C#N)c3ccc(OCCCN4CCN(C)CC4)cc3n2C2CCC2)cc1 [Compound 1307] | 0.5 to 2 µM
25 | CC(C)OC(=O)Nc1ccc(-c2c(C#N)c3ccc(OCc4ccccn4)cc3n2C2CCC2)cc1 [Compound 1220] | < 0.5 µM
26 | CCCNC(=O)Nc1ccc(-c2c(C#N)c3ccc(OC(F)F)cc3n2CC)cc1 [Compound 1136] | 0.5 to 2 µM
27 | CC(C)NC(=O)Nc1ccc(-c2c(C#N)c3ccc(OCCN4CCOCC4)cc3n2C2CCC2)cc1 [Compound 1315] | 0.5 to 2 µM

Row | SMILES | IC50
28 | CCn1c(-c2ccc(N3CCCS3(=O)=O)cc2)c(C#N)c2ccc(C(F)(F)F)cc21 [Compound 969] | < 0.5 µM
29 | N#Cc1c(-c2ccc(NS(=O)(=O)C3CC3)cc2)n(C2CCCC2)c2cc(OC(F)F)ccc12 [Compound 1189] | < 0.5 µM
30 | CCOc1ccc2c(C#N)c(-c3ccc(NC(=O)C4CC4)cc3)n(CC)c2c1 [Compound 897] | 0.5 to 2 µM
31 | CCCOc1ccc2c(C#N)c(-c3ccc(NC(=O)OC(C)C)cc3)n(C(C)C)c2c1 [Compound 1204] | < 0.5 µM
32 | CC(OC(=O)Nc1ccc(-c2c(C#N)c3ccc(OC(F)F)cc3n2CC2CC2)cc1)C1CC1 (centres unmarked) [Compound 1267] | 0.5 to 2 µM
33 | CCOc1ccc2c(C#N)c(-c3ccc(NC(=O)OCCF)cc3)n(CC(C)C)c2c1 [Compound 1059] | 0.5 to 2 µM
34 | CCCOc1ccc2c(C#N)c(-c3ccc(NC(=O)NC4CCC4)cc3)n(C(C)C)c2c1 [Compound 1326] | 0.5 to 2 µM
35 | CCn1c(-c2ccc(NS(=O)(=O)C3CC3)cc2)c(C#N)c2ccc(OC(F)F)cc21 [Compound 929] | < 0.5 µM
36 | CCn1c(-c2ccc(N3CCOC3=O)cc2)c(C#N)c2ccc(OCCCCl)cc21 [Compound 1052] | 0.5 to 2 µM
37 | N#Cc1c(-c2ccc(NC(=O)NC3CCC3)cc2)n(C2CCC2)c2cc(OCCCCN3CCCC3)ccc12 [Compound 1259] | < 0.5 µM
38 | CCCCn1c(-c2ccc(NC(=O)NC(C)C)cc2)c(C#N)c2ccc(OCC)cc21 [Compound 1017] | < 0.5 µM
39 | CCn1c(-c2ccc(NC(=O)NC(C)C)c(F)c2)c(C#N)c2ccc(OC)cc21 [Compound 911] | 0.5 to 2 µM
40 | CCOc1ccc2c(C#N)c(-c3ccc(NC(=O)OC4CCOC4)cc3)n(C3CCC3)c2c1 (centres unmarked) [Compound 1215] | < 0.5 µM
41 | COc1ccc2c(c1)c(C#N)c(-c1ccc(NS(=O)(=O)C3CC3)cc1)n2C1CCC1 [Compound 1182] | < 0.5 µM and > 2 µM
42 | CC(C)OC(=O)Nc1ccc(-c2c(C#N)c3ccc(OCCN4CCOCC4)cc3n2C2CCC2)cc1 [Compound 1271] | < 0.5 µM
43 | CCOC(=O)Nc1ccc(-c2c(C#N)c3ccc(OC)cc3n2C2CCC2)cc1 [Compound 1073] | 0.5 to 2 µM
44 | CCOc1ccc2c(C#N)c(-c3ccc(NC(=O)OC(C)C)cc3)n(C3CCC3)c2c1 [Compound 973] | < 0.5 µM
45 | CCCNC(=O)Nc1ccc(-c2c(C#N)c3cc(OC)ccc3n2CC)cc1 [Compound 1010] | 0.5 to 2 µM
46 | CCOc1ccc2c(C#N)c(-c3ccc(NC(=O)C4CCC4)cc3)n(CC)c2c1 [Compound 899] | 0.5 to 2 µM
47 | CCn1c(-c2ccc(N3CCCS3(=O)=O)cc2)c(C#N)c2ccc(OC(F)F)cc21 [Compound 1026] | 0.5 to 2 µM and < 0.5 µM
48 | CCn1c(-c2ccc(NC(=O)OC)cc2)c(C#N)c2ccc(OC(F)(F)F)cc21 [Compound 886] | 0.5 to 2 µM
49 | CCCS(=O)(=O)Nc1ccc(-c2c(C#N)c3ccc(OC)cc3n2CC)cc1C [Compound 961] | 0.5 to 2 µM
50 | COCCN(C)CCOc1ccc2c(C#N)c(-c3ccc(NC(=O)NC(C)C)cc3)n(C3CCC3)c2c1 [Compound 1321] | 0.5 to 2 µM
51 | CCn1c(-c2ccc(NS(=O)(=O)C3CC3)cc2)c(C#N)c2ccc(OC3CC3)cc21 [Compound 1047] | < 0.5 µM
52 | CC(C)NC(=O)Nc1ccc(-c2c(C#N)c3ccc(OCCn4ccnc4)cc3n2C2CCC2)cc1 [Compound 1322] | < 0.5 µM
53 | CCOc1ccc2c(C#N)c(-c3ccc(NC(=O)OCCCN4CCOCC4)cc3)n(C3CCC3)c2c1 [Compound 1210] | < 0.5 µM
54 | CC1CCN(CCOc2ccc3c(C#N)c(-c4ccc(NC(=O)OC(C)C)cc4)n(C4CCC4)c3c2)CC1 [Compound 1272] | < 0.5 µM

Row | SMILES | IC50
55 | CCCNC(=O)Nc1ccc(-c2c(C#N)c3cc(OC)ccc3n2CCC)cc1 [Compound 1000] | 0.5 to 2 µM
56 | CCOc1ccc2c(C#N)c(-c3ccc(N(CC)CC)cc3)n(C3CC3)c2c1 [Compound 1310] | 0.5 to 2 µM
57 | CCOc1ccc2c(C#N)c(-c3ccc(NC(=O)Cc4ccccc4)cc3)n(CC)c2c1 [Compound 900] | 0.5 to 2 µM
58 | CCOC(=O)Nc1ccc(-c2c(C#N)c3ccc(OC)cc3n2CC)cc1C [Compound 964] | 0.5 to 2 µM
59 | CCn1c(-c2ccc(NC(=O)OCCCl)cc2)c(C#N)c2ccc(OCCCN3CCOCC3)cc21 [Compound 1116] | 0.5 to 2 µM
60 | N#Cc1c(-c2ccc(NC(=O)NC3CCCC3)cc2)n(C2CCC2)c2cc(OC(F)F)ccc12 [Compound 1190] | 0.5 to 2 µM
61 | COc1ccc2c(C#N)c(-c3ccc(NS(=O)(=O)C4CC4)cc3)n(CC3CCCC3)c2c1 [Compound 890] | 0.5 to 2 µM
62 | CCCCNC(=O)Nc1ccc(-c2c(C#N)c3ccc(OCC)cc3n2CCC)cc1 [Compound 1097] | < 0.5 µM
63 | CCOC(=O)Nc1ccc(-c2c(C#N)c3ccc(OCCCCl)cc3n2CC)cc1 [Compound 1031] | < 0.5 µM
64 | CCCOC(=O)N(CC)c1ccc(-c2c(C#N)c3ccc(OCC)cc3n2C2CCC2)cc1 [Compound 1252] | 0.5 to 2 µM
65 | CCNC(=O)Nc1ccc(-c2c(C#N)c3ccc(OCC)cc3n2CC2CC2)cc1 [Compound 1156] | < 0.5 µM
66 | CCCCn1c(-c2cccc(NC(=O)OCC)c2)c(C#N)c2ccc(OCC)cc21 [Compound 1020] | < 0.5 µM and 0.5 to 2 µM
67 | CC(C)OC(=O)Nc1ccc(-c2c(C#N)c3ccc(OCCF)cc3n2C2CCC2)cc1 [Compound 1174] | < 0.5 µM
68 | CCOC(=O)Nc1ccc(-c2c(C#N)c3cc(OCc4ccccc4)ccc3n2CC)cc1 [Compound 925] | 0.5 to 2 µM
69 | CCCCOC(=O)Nc1cccc(-c2c(C#N)c3ccc(OCCCN4CCOCC4)cc3n2CC)c1 [Compound 1042] | 0.5 to 2 µM
70 | CCOc1ccc2c(C#N)c(-c3ccc(NC(=O)OC(C)C)cc3)n(CC3CC3)c2c1 [Compound 1150] | < 0.5 µM
71 | CCn1c(-c2ccc(N3CCCS3(=O)=O)cc2)c(C#N)c2ccc(OCCn3cccn3)cc21 [Compound 908] | 0.5 to 2 µM
72 | CCCn1c(-c2ccc(NC(=O)OCC)cc2)c(C#N)c2ccc(OCC)cc21 [Compound 1063] | 0.5 to 2 µM
73 | CCCCNC(=O)Nc1ccc(-c2c(C#N)c3ccc(OCC)cc3n2CC)cc1 [Compound 951] | 0.5 to 2 µM
74 | C=CCNC(=O)Nc1ccc(-c2c(C#N)c3ccc(OCCF)cc3n2CC)cc1 [Compound 958] | 0.5 to 2 µM and < 0.5 µM
75 | CCCOc1ccc2c(C#N)c(-c3ccc(NC(=O)OCC)cc3)n(C(C)C)c2c1 [Compound 1202] | < 0.5 µM
76 | CCCS(=O)(=O)Nc1ccc(-c2c(C#N)c3ccc(OC)cc3n2C2CC2)cc1 [Compound 1235] | 0.5 to 2 µM
77 | CCCCOC(=O)Nc1ccc(-c2c(C#N)c3ccc(OC)cc3n2C2CCC2)cc1 [Compound 1077] | < 0.5 µM
78 | C[C@@H](OC(=O)Nc1ccc(-c2c(C#N)c3ccc(Oc4cnccn4)cc3n2C2CC2)cc1)C1CC1 [Compound 2322] | < 0.5 µM
79 | CCn1c(-c2ccc(NC(=O)C3CC3)cc2)c(C#N)c2ccc(OCCN3CCN(C)CC3)cc21 [Compound 952] | 0.5 to 2 µM
80 | CCCn1c(-c2ccc(NC(=O)OC(C)C)cc2)c(C#N)c2ccc(OCC)cc21 [Compound 1056] | < 0.5 µM
